Experiment: Storage stability in humidity chamber at 50% RH and 25° C., evaluated by XRPD
Format: physicochemical
Settings: about 50% relative humidity
Protocol: The X-ray powder diffractograms (XRPD) of the samples were determined by using Instrument: PANalytical; Mode: Expert PRO; Detector: Xcelerator; ScanRange: 3-40; Step size: 0.02; Range: 3-40° 2 theta; CuKα radiation at 45 kV.
0.52 g of the product obtained as per Example 2 was stored in double sealed polybags in a humidity chamber maintained at 50% RH and 25° C. for 4 days to evaluate the stability. The XRPD pattern of the compound stored at 50% RH and 25° C. for 4 days is depicted in FIG. 10.
0.54 g of the product obtained as per Example 2 was stored in double sealed polybags in a humidity chamber maintained at 50% RH and 25° C. for 10 days to evaluate the stability. The XRPD pattern of the compound stored at 50% RH and 25° C. for 10 days is depicted in FIG. 11.
0.54 g of the product obtained as per Example 5 was stored in double-sealed polybags in a humidity chamber maintained at 50% RH and 25° C. for 4 days to evaluate the stability. The XRPD pattern of the product stored at 50% RH and 25° C. for 4 days is depicted in FIG. 13.
0.53 g of the product obtained as per Example 5 was stored in double-sealed polybags in a humidity chamber maintained at 50% RH and 25° C. for 10 days to evaluate the stability. The XRPD pattern of the product stored at 50% RH and 25° C. for 10 days is depicted in FIG. 14. […]

time period in which the amorphous form tends to undergo crystallization: about 4 days
SMILES: N[C@@H](CC(=O)N1CCn2c(nnc2C(F)(F)F)C1)Cc1cc(F)c(F)cc1F [sitagliptin dihydrogen phosphate]

Source: US20150025080A1, “SOLID DISPERSIONS OF SITAGLIPTIN AND PROCESSES FOR THEIR PREPARATION” (RANBAXY LABORATORIES LIMITED, priority 2011, published 2015)
